Measurements published in patent publication US20250388589A1, “TRICYCLIC HETEROCYCLIC DERIVATIVES, COMPOSITIONS AND USES THEREOF” (Danatlas Pharmaceuticals Co., Ltd., priority 2022, published 2025).

Legend:
[1] = biological target: hPARG (C-terminal His6-tag) (Homo sapiens (Human), UniProt Q86W56); assay: PARG Enzymatic Activity Assay (HTRF); assay type: biochemical; conditions: hPARG 65 pM final, biotinylated-NAD ribosylated PARP1 8 nM final
Procedure: PARG Enzymatic Activity Assay HTRF assay was used to measure the ability of compounds to inhibit the activity of PARG in vitro. C-terminal His6-tag PARG expressed in E. coli was purified and stored at −80° C. in aliquots. Assay measurements were performed with 1×buffer comprising 50 mM Tris pH 7.4, 0.1 mg/mL BSA, 3 mM EDTA, 0.4 mM EGTA, 1 mM DTT, 50 mM KCl and 0.01% Tween 20.
Compounds dissolved in DMSO were plated into a 384-well assay plate (PerkinElmer, Catalog #: 6008280) in duplicate using a dispenser (Labcyte, Echo 665), and tested on a 10-point 4-fold serial dilution. Add 5 L Enzyme mix [hPARG (C-terminal His6-tag, 4.2 μM), 65 pM final] to the test wells. The plates were covered and left to incubate for 60 minutes at RT before the addition of 5 L substrate mix [biotinylated-NAD ribosylated PARP1 (6.1 μM), 8 nM final] to initiate reaction. After incubating 10 minutes at RT, add 2.5 L Streptavidin-Eu cryptate (Cisbio, Catalog #: 610SAKLA) and 2.5 L Mab anti 6HIS-XL665 (Cisbio, Catalog #: 61HISXLA) to the plate, and incubate for 60 minutes at RT. Read on a multimode plate reader (PerkinElmer, Envision 2015) in time-resolved fluorescence (TRF) mode, with excitation at 337 nm and emission at both 620 nm and 665 nm. Average HTRF signal of high control (Wells with 1% DMSO) was calculated and as Vehicle Control (VC). Average HTRF signal of low control (no Enzyme) was calculated and as Positive control (PC).
(§1) IC50 values were determined by fitting the data to the standard 4 parameters with Hill Slope using GraphPad Prism software.

Kuramochi cell line = assay: Cell Viability Assay (Cell Titer-Glo, 7 days); assay type: cell-based; conditions: 168 h, Kuramochi cells, 7 days incubation, read-out: PARG Cell viability (IC50)
Procedure: Cell viability studies were conducted in Kuramochi cell line. Cells were maintained in RPMI (Hyclone, Catalog #: SH3080901B) supplemented with 10% v/v FBS (AusGeneX, Catalog #: FBS500-S), 1% v/v Penicillin Streptomycin (Gibco, Catalog #: 15140122). Cells were seeded in 96-well plates (PerkinElmer, Catalog #: 6005680) at a density of 400 cells/well. Compounds dissolved in DMSO were plated in duplicate using a multichannel pipette, and tested on a 9-point 3-fold serial dilution. Cells were incubated for 7 days in a 37° C. active humidified incubator at 5% CO2. Cell viability was measured using the Cell Titer-Glo reagent (Promega, Catalog #: G7573) as manufacturer's instructions. Luminescence signal was measured with a multimode plate reader (Perkin Elmer, Envision 2105 or BMG, ClarioStar Plus). Average values of DMSO treated wells in a plate was calculated and as high control (HC). Average values of only medium in a plate was calculated and as low control (LC)
as §1

Sequence of hPARG (C-terminal His6-tag) (Q86W56 whole entry): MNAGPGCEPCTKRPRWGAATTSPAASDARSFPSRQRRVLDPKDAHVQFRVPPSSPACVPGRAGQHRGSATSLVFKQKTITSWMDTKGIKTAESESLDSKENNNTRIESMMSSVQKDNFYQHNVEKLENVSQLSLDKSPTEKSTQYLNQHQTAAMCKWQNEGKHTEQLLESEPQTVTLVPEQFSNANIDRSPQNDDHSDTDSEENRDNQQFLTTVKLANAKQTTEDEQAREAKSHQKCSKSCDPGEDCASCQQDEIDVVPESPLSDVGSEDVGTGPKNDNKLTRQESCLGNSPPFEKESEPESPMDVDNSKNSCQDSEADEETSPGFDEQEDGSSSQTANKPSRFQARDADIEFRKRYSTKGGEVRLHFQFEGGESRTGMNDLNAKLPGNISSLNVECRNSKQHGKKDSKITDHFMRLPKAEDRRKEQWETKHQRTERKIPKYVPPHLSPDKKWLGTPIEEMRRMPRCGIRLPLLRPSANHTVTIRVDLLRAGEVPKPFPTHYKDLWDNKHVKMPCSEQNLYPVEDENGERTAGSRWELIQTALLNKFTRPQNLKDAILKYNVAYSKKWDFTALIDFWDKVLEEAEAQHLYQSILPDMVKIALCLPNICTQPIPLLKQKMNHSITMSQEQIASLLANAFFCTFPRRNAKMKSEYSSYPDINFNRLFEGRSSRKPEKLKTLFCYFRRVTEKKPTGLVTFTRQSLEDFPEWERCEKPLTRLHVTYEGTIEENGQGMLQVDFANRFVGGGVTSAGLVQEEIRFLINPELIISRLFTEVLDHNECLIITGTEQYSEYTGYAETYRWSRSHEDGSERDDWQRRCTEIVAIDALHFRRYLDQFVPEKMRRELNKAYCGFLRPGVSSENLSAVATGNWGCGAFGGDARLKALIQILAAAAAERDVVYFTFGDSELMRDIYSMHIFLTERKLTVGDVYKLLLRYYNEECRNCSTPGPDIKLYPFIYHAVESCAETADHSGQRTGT

| IC50 [1] | Compound | IC50 (Kuramochi cell line) |
| --- | --- | --- |
| < 100 nM | C[C@@H](O)C(=O)N1CCC(c2ncnc3c2c2ccc(S(=O)(=O)NC4(C#N)CC4)cc2n3-c2nnc(C(F)F)s2)CC1 [Example 107, (R)-N-(1-Cyanocyclopropyl)-9-(5-(difluoromethyl)-1,3,4-thiadiazol-2-yl)-4-(1-(2-hydroxypropanoyl)piperidin-4-yl)-9H-pyrimido[4,5-b]indole-7-sulfonamide] | < 100 nM |
| < 100 nM | CCN(C)C(=O)N1CCN(c2ncnc3c2c2ccc(S(=O)(=O)NC4(C#N)CC4)cc2n3-c2nnc(C(F)F)s2)CC1 [Example 7, 4-(7-(N-(1-Cyanocyclopropyl)sulfamoyl)-9-(5-(difluoromethyl)-1,3,4-thiadiazol-2-yl)-9H-pyrimido[4,5-b]indol-4-yl)-N-ethyl-N-methylpiperazine-1-carboxamide] | < 100 nM |
| < 100 nM | CC(C)C(=O)N1CCCN(c2ncnc3c2c2ccc(S(=O)(=O)NC4(C#N)CC4)cc2n3-c2nnc(C(F)F)s2)CC1 [Example 25, N-(1-Cyanocyclopropyl)-9-(5-(difluoromethyl)-1,3,4-thiadiazol-2-yl)-4-(4-isobutyryl-1,4-diazepan-1-yl)-9H-pyrimido[4,5-b]indole-7-sulfonamide] | 100 to 1000 nM |
| < 100 nM | C[C@@H]1CN(c2ncnc3c2c2ccc(S(=O)(=O)NC4(C#N)CC4)cc2n3-c2nnc(C(F)F)s2)C[C@H](C)N1C(=O)CN1CCOCC1 [Example 39, N-(1-Cyanocyclopropyl)-9-(5-(difluoromethyl)-1,3,4-thiadiazol-2-yl)-4-((3R,5S)-3,5-dimethyl-4-(2-morpholinoacetyl)piperazin-1-yl)-9H-pyrimido[4,5-b]indole-7-sulfonamide] | < 100 nM |
| < 100 nM | CN(C)C1CCN(c2ncnc3c2c2ccc(S(=O)(=O)NC4(C#N)CC4)cc2n3-c2nnc(C(F)F)s2)C[C@@H]1F (stereo partly drawn) [Example 175, N-(1-cyanocyclopropyl)-9-(5-(difluoromethyl)-1,3,4-thiadiazol-2-yl)-4-((3S)-4-(dimethylamino)-3-fluoropiperidin-1-yl)-9H-pyrimido[4,5-b]indole-7-sulfonamide] | < 100 nM |
| < 100 nM | CN1CCN(c2ncnc3c2c2ccc(S(=O)(=O)NC4(C#N)CC4)cc2n3-c2nnc(C(F)F)s2)CC1 [Example 56, N-(1-Cyanocyclopropyl)-9-(5-(difluoromethyl)-1,3,4-thiadiazol-2-yl)-4-(4-methylpiperazin-1-yl)-9H-pyrimido[4,5-b]indole-7-sulfonamide] | < 100 nM |
| < 100 nM | CC1(NS(=O)(=O)c2ccc3c4c(N5CCN6CCOC[C@H]6C5)ncnc4n(-c4nnc(C(F)F)s4)c3c2)CC1 [Example 184, (R)-9-(5-(Difluoromethyl)-1,3,4-thiadiazol-2-yl)-4-(hexahydropyrazino[2,1-c][1,4]oxazin-8(1H)-yl)-N-(1-methylcyclopropyl)-9H-pyrimido[4,5-b]indole-7-sulfonamide] | 100 to 1000 nM |
| < 100 nM | CC(C)C(=O)N1CC=C(c2ncnc3c2c2cc(F)c(S(=O)(=O)NC4(C)CC4)cc2n3-c2nnc(C(F)F)s2)CC1 [Example 103, 9-(5-(Difluoromethyl)-1,3,4-thiadiazol-2-yl)-6-fluoro-4-(1-isobutyryl-1,2,3,6-tetrahydropyridin-4-yl)-N-(1-methylcyclopropyl)-9H-pyrimido[4,5-b]indole-7-sulfonamide] | < 100 nM |
| < 100 nM | CC(C)C(=O)N1C[C@@H](C)N(c2ncnc3c2c2ccc(S(=O)(=O)NC4(C#N)CC4)cc2n3-c2nnc(C(F)F)s2)C[C@@H]1C [Example 33, N-(1-Cyanocyclopropyl)-9-(5-(difluoromethyl)-1,3,4-thiadiazol-2-yl)-4-((2R,5S)-4-isobutyryl-2,5-dimethylpiperazin-1-yl)-9H-pyrimido[4,5-b]indole-7-sulfonamide] | < 100 nM |
| < 100 nM | CC(C)C(=O)N1[C@H](C)CN(c2ncnc3c2c2ccc(S(=O)(=O)NC4(C#N)CC4)cc2n3-c2nnc(C(F)F)s2)C[C@@H]1C [Example 62, N-(1-Cyanocyclopropyl)-9-(5-(difluoromethyl)-1,3,4-thiadiazol-2-yl)-4-((3S,5R)-4-isobutyryl-3,5-dimethylpiperazin-1-yl)-9H-pyrimido[4,5-b]indole-7-sulfonamide] | < 100 nM |

The remaining lines, values behind:

| Compound | IC50 [1] | IC50 (Kuramochi cell line) |
| --- | --- | --- |
| CN(C)C(=O)N1CC=C(c2ncnc3c2c2ccc(S(=O)(=O)NC4(C)CC4)cc2n3-c2nnc(C(F)F)s2)CC1 [Example 152, 4-(9-(5-(Difluoromethyl)-1,3,4-thiadiazol-2-yl)-7-(N-(1-methylcyclopropyl)sulfamoyl)-9H-pyrimido[4,5-b]indol-4-yl)-N,N-dimethyl-3,6-dihydropyridine-1(2H)-carboxamide] | < 100 nM | < 100 nM |
| CC(C)N1CCN(c2ncnc3c2c2ccc(S(=O)(=O)NC4(C#N)CC4)cc2n3-c2nnc(C(F)F)s2)CC1=O [Example 180, N-(1-Cyanocyclopropyl)-9-(5-(difluoromethyl)-1,3,4-thiadiazol-2-yl)-4-(4-isopropyl-3-oxopiperazin-1-yl)-9H-pyrimido[4,5-b]indole-7-sulfonamide] | < 100 nM | < 100 nM |
| C[C@H]1CN(c2ncnc3c2c2cc(F)c(S(=O)(=O)NC4(C)CC4)cc2n3-c2nnc(C(F)F)s2)CCN1C(=O)N(C)C [Example 102, (S)-4-(9-(5-(Difluoromethyl)-1,3,4-thiadiazol-2-yl)-6-fluoro-7-(N-(1-methylcyclopropyl)sulfamoyl)-9H-pyrimido[4,5-b]indol-4-yl)-N,N,2-trimethylpiperazine-1-carboxamide] | < 100 nM | < 100 nM |
| N#CC1(NS(=O)(=O)c2ccc3c4c(C5CCN(C(=O)C6(O)CC6)CC5)ncnc4n(-c4nnc(C(F)F)s4)c3c2)CC1 [Example 114, N-(1-cyanocyclopropyl)-9-(5-(difluoromethyl)-1,3,4-thiadiazol-2-yl)-4-(1-(1-hydroxycyclopropane-1-carbonyl)piperidin-4-yl)-9H-pyrimido[4,5-b]indole-7-sulfonamide] | < 100 nM | 100 to 1000 nM |
| CO[C@@H](C)C(=O)N1CCC(c2ncnc3c2c2ccc(S(=O)(=O)NC4(C)CC4)cc2n3-c2nnc(C(F)F)s2)CC1 [Example 96, (S)-9-(5-(Difluoromethyl)-1,3,4-thiadiazol-2-yl)-4-(1-(2-methoxypropanoyl)piperidin-4-yl)-N-(1-methylcyclopropyl)-9H-pyrimido[4,5-b]indole-7-sulfonamide] | < 100 nM | < 100 nM |
| N#CC1(NS(=O)(=O)c2ccc3c4c(N5CCN6CCOC[C@@H]6C5)ncnc4n(-c4nnc(C(F)F)s4)c3c2)CC1 [Example 162, (S)-N-(1-cyanocyclopropyl)-9-(5-(difluoromethyl)-1,3,4-thiadiazol-2-yl)-4-(hexahydropyrazino[2,1-c][1,4]oxazin-8(1H)-yl)-9H-pyrimido[4,5-b]indole-7-sulfonamide] | < 100 nM | < 100 nM |
| CN(C)C(=O)C1CCN(c2ncnc3c2c2ccc(S(=O)(=O)NC4(C#N)CC4)cc2n3-c2nnc(C(F)F)s2)CC1 [Example 179, 1-(7-(N-(1-Cyanocyclopropyl)sulfamoyl)-9-(5-(difluoromethyl)-1,3,4-thiadiazol-2-yl)-9H-pyrimido[4,5-b]indol-4-yl)-N,N-dimethylpiperidine-4-carboxamide] | < 100 nM | < 100 nM |
| C[C@@H]1COCCN1c1ncnc2c1c1ccc(S(=O)(=O)NC3(C#N)CC3)cc1n2-c1nnc(C(F)F)s1 [Example 199, (R)—N-(1-Cyanocyclopropyl)-9-(5-(difluoromethyl)-1,3,4-thiadiazol-2-yl)-4-(3-methylmorpholino)-9H-pyrimido[4,5-b]indole-7-sulfonamide] | < 100 nM | < 100 nM |
| CC(C)(C)OC(=O)N1CCC(c2ncnc3c2c2ccc(S(=O)(=O)NC4(C#N)CC4)cc2n3-c2nnc(C(F)F)s2)CC1 [Example 86, tert-butyl 4-(7-(N-(1-cyanocyclopropyl)sulfamoyl)-9-(5-(difluoromethyl)-1,3,4-thiadiazol-2-yl)-9H-pyrimido[4,5-b]indol-4-yl)piperidine-1-carboxylate] | < 100 nM | 100 to 1000 nM |
